These results are taken from ChEMBL document CHEMBL4118092, “Synthesis and Activity of a New Series of Antileishmanial Agents” (ACS Med Chem Lett, 2017).

Data set [1] concerns Leishmania donovani. Description: Antileishmanial activity against Leishmania donovani axenic amastigotes after 72 hrs by CellTiter reagent based assay. The data set is classed as functional, organism-based.
Data set [2] concerns Leishmania donovani. Description: Antileishmanial activity against Leishmania donovani axenic amastigotes infected in mouse J774 cells after 72 hrs by Draq5 staining based assay. It is filed as functional, organism-based. The note with it: J774, 72 h.
In data set [3] the test system is J774.A1. Kind of data set: Cytotoxicity against mouse J774.A1 cells after 72 hrs by MTS assay. It is filed as cell-based. Particulars: J774.A1, 72 h. In general terms: Tetrazolium assays rely on reduction of a dye to a coloured formazan, in cell work by metabolically active cells.
Data set [4] is described as follows: Kinetic solubility of the compound in pH 7.4 PBS buffer. The note with it: read-out: Kinetic_solubility. The data set is classed as physicochemical.

pIC50: −log10 of the molar value. Some results are limits rather than exact numbers.

Consider `COCCCNc1cc(-n2nc(C)c3c2CCCC3=O)ccc1C(N)=O`, for which the pIC50 (as a rule, the IC50 on a negative log10 scale, so that one unit is a factor of ten) in data set [1] was less than 4.60; in data set [2], less than 5.00; in data set [3], less than 4.30.

As for `CCCCCCCCCCCCCCCCOP(=O)([O-])OCC[N+](C)(C)C` [MILTEFOSINE], the pIC50 in data set [1] is 5.49; in data set [2], 5.84; in data set [3], less than 4.30.

On to `COCCCNc1cc(-n2nc(C)c3c2CNCC3=O)ccc1C(N)=O`, for which the negative logarithm of the IC50 (pIC50) is 5.41 in data set [1], less than 5.00 in data set [2] and less than 4.30 in data set [3].

As to `COCCCNc1cc(-n2nc(C)c3c2CN(Cc2ccccc2)CC3=O)ccc1C(N)=O`, the negative logarithm of the IC50 (pIC50) in data set [1] is 5.64; in data set [2], 5.20; in data set [3], less than 4.30.

In the case of `CCC(=O)N1CC(=O)c2c(C)nn(-c3ccc(C(N)=O)c(NCCCOC)c3)c2C1`, the negative logarithm of the IC50 (pIC50) was 5.19 in data set [1], 5.45 in data set [2] and less than 4.30 in data set [3].

Turning to `C[C@@H]1C[C@H]2O[C@@H]2/C=C\C=C\C(=O)Cc2c(Cl)c(O)cc(O)c2C(=O)O1` [RADICICOL], the pIC50 was 6.21 in data set [1], 6.54 in data set [2] and 5.63 in data set [3].

As to `CC1(C)CC(=O)c2c(C(F)(F)F)nn(-c3ccc(C(N)=O)c(N[C@H]4CC[C@H](O)CC4)c3)c2C1` [SNX-2112], the pIC50 in data set [1] is 6.38; in data set [2], 6.21; in data set [3] it was more than 7.22.

For `Cc1nn(-c2ccc3c(N)ncnc3c2)c2c1C(=O)CC(C)(C)C2`, the pIC50 in data set [1] was 5.62; in data set [2], 5.88; in data set [3] it was less than 4.30.

As to `COCCCNc1cc(-n2nc(C)c3c2CN(S(C)(=O)=O)CC3=O)ccc1C(N)=O`, the pIC50 in data set [1] is less than 4.70; in data set [2], 5.27; in data set [3], 4.59.

Consider `COCCCNc1cc(-n2nc(C)c3c2CN(C(N)=O)CC3=O)ccc1C(N)=O`, for which the negative-log IC50 (pIC50) in data set [1] was less than 4.70; in data set [2], less than 5.00; in data set [3] it was less than 4.30.

In the case of `COCCCNc1cc(-n2nc(C)c3c2CN(C(=O)COC)CC3=O)ccc1C(N)=O`, the pIC50 in data set [1] is 5.35; in data set [2] it was 5.45; in data set [3] it was less than 4.30.

`COCCCNc1cc(-n2nc(C)c3c2CN(C(=O)NCc2ccccc2)CC3=O)ccc1C(N)=O`: the pIC50 in data set [1] was less than 4.70; in data set [2], less than 5.00; in data set [3], less than 4.30.

For the compound `COCCCNc1cc(-n2nc(C)c3c2CN(C(=O)c2ccc(C)cc2)CC3=O)ccc1C(N)=O`, the pIC50 in data set [1] is 5.59; in data set [2], 5.76; in data set [3], 4.58.

`COCCCNc1cc(-n2nc(C)c3c2CN(C(=O)C2CCCC2)CC3=O)ccc1C(N)=O`: the pIC50 in data set [1] is 5.52; in data set [2], 5.82; in data set [3], less than 4.30.

In the case of `COCCCNc1cc(-n2nc(C)c3c2CN(C(C)=O)CC3=O)ccc1C(N)=O`, in data set [4], the solubility kinetic was more than 490 µM. Further, the pIC50 in data set [1] was 4.86; in data set [2], 5.97; in data set [3] it was less than 4.30.

Turning to `COCCCNc1cc(-n2nc(C)c3c2CN(C(=O)C(C)C)CC3=O)ccc1C(N)=O`, the pIC50 in data set [1] was 5.72; in data set [2] it was 5.45; in data set [3] it was 4.43.

Consider `COCCCNc1cc(-n2nc(C)c3c2CC(C)(C)CC3=O)ccc1C(N)=O`, for which the pIC50 in data set [1] is 6.19; in data set [2], 6.06; in data set [3], 5.45.
